From patent publication US5118791A, “Biologically active polypeptides based on transforming growth factor-β” (Genentech, Inc., priority 1991, dated 1992) come the findings set out here.

Where no end group is shown, it is not given here.

What all share (format): cell-based
For experiment [1], the system named is Mu-1-Lv (ATCC CCL 64) mink lung epithelial-like cell. In words: Inhibition of proliferation of cultured mink lung cells (3H-thymidine incorporation). Particulars: CCL-64 mink lung cells, 24 hours, FIG. 1. The method, then:
The cell line Mu-1-Lv (ATCC CCL 64, Rockville, MD), a mink lung epithelial-like cell, was used to detect TGF-β activity. Mul-1-Lv cells maintained by weekly passage in vitro in CMEM consisting of Eagle's minimum essential medium supplemented with 0.1 mM nonessential amino acids, 2 mM L-glutamine, 1 MM sodium pyruvate (Gibco, Grand Island, NY), and 10% heat-inactivated fetal bovine serum (FBC; HyClone Laboratoris, Logan, UT) were placed into 96-well flat-bottom microtiter plates (10,000/well; Falcon 3075) at a final volume of 200 μl/well. The plates were incubated at 37° C.+5% CO2 for 24 hours. During the last 4 hours of culture, 1 μCi of {3H} thymidine (20 μl/well, 5.0 Ci/mmol; Amersham Corp.) was added. After labeling, 100 μl/well of 10 x Trypsin-EDTA was added per well and the plates were incubated for an additional 15 min. at 37° C. Cells were harvested onto glass filters and counted in a liquid scintillation counter (LS 6800, Beckman, Fullerton, CA). Results (pg/ml of TGF-β) were calculated based on percent inhibition of thymidine incorporation compared with a rHuTGF-β1 laboratory standard.

Experiment [2] deals with human lymphocytes. In words: Inhibition of human lymphocyte proliferation in response to tetanus toxoid. Particulars: tetanus toxoid 2 LF units/ml, six days, dose-dependent, FIG. 4. The method, then: The medium employed was complete RPMI-1640, i.e., RPMI-1640 (Gibco) supplemented with 10% human pooled AB serum (Hazelton Biologics Inc., Lenexa, KS), 100 u/ml penicillin/100 μg/ml streptomycin, 2 mM L-glutamine (Gibco), 1 mM sodium pyruvate (Gibco), 1% MEM non-essential amino acids (Gibco, 100x), 25 mM HEPES (Gibco), and 1% Nutridoma (Boehringer Manheim).
Heparinized venous blood (10 u/ml; bovine lung, Upjohn) was mixed with an equal volume of isotonic saline. Approximately 30 ml of the diluted blood was layered over 15 ml of lymphocyte separation medium (LSM, Organon Technika) in […] conical polypropylene centrifuge tubes (Falcon Plastics). The tubes were centrifuged for 40 min. at 400× g at 22° C. […]
To each of sextuplicate wells of a 96-well flat-bottom microtiter plate (Falcon Plastics) was added 100 μl of the cell suspension. […] The filter discs were dried and suspended in 2 ml of liquid scintillation cocktail (Econofluor, New England Nuclear) in mini-scintillation vials and incorporated radioactivity was determined by liquid scintillation spectrophotometry. Data were expressed as mean counts per min. of the quadruplicate samples, where the cpm of the media control was substrated from the cpm of the stimulated sample.

Experiment [3] deals with human lymphocytes. In words: Inhibition of human lymphocyte proliferation in response to PMA. The conditions noted are these: PMA 40 ng/ml, three days, dose-dependent, FIG. 5.
Experiment [4] relates to human lymphocytes. The experiment in a line: Inhibition of human lymphocyte proliferation in response to PHA-P. Particulars: PHA-P 1 μg/ml, three days, dose-dependent, FIG. 6.

Take CVRQLYIDFRKDLGWK [free polypeptide]: the “cpm incorporated (activity) as a function of the reciprocal of dilution” value in experiment [1] was “comparable, i.e., low at the low dilution level and high at the high dilution levels”.

On to “TGF-β1: mature, full-length transforming growth factor-β1”, for which the “inhibition of proliferation of human lymphocytes in response to tetanus toxoid” value in the experiment with human lymphocytes [2] is “also exhibits this dose-dependent effect”. Further, the “inhibition of proliferation of human lymphocytes in response to PMA” value in the experiment on human lymphocytes [3] is given as “also exhibits this dose-dependent effect”. Further, the “inhibition of proliferation of human lymphocytes in response to PHA-P” value in the experiment on human lymphocytes [4] was “also exhibits this dose-dependent effect”.
